Values after ≈ are worked out from the molar mass of the structure shown. Where two headings read alike, the source gives them in different places.
Experiments:
[1] = system: Serratia marcescens 274; experiment: Protection ability against systemic infection; assay type: in vivo, ICR mice; settings: iv, 168 h, i.p. infection, i.v. compound 1 hour later, survival at 1 week
Protocol: (§1) Protection ability against systemic infection was determined as follows. An aqueous suspension of test bacteria was intraperitoneally injected into 10 four week old ICR mice. One hour after the infection, test compounds were intravenously administered. The number of surviving mice was counted 1 week after injection to determine the dose at which 50% of the test animals were alive (ED50 :mg/kg).

[2] = system: Staphylococcus aureus 242 (methicillin-resistant strain); experiment: Protection ability against systemic infection; assay type: in vivo, ICR mice; settings: in Mus musculus, iv, 168 h, i.p. infection, i.v. compound 1 hour later, survival at 1 week
Protocol: as §1

[3] = system: Escherichia coli 111; experiment: Protection ability against systemic infection; assay type: in vivo, ICR mice; settings: Escherichia coli, 111, in Mus musculus, iv, 168 h, i.p. infection, i.v. compound 1 hour later, survival at 1 week
Protocol: as §1

[4] = system: Pseudomonas aeruginosa IFO3445; experiment: Protection ability against systemic infection; assay type: in vivo, ICR mice; settings: iv, 168 h, i.p. infection, i.v. compound 1 hour later, survival at 1 week
Protocol: as §1

[5] = system: Staphylococcus aureus Smith; experiment: Antibacterial activity in vitro, agar plate dilution method (MIC); assay type: cell-based; settings: Mueller Hinton agar, 10^6 cells/ml, 37° C., 20 hours
Protocol: (§2) Antibacterial activity in vitro was determined in accordance with the agar plate dilution method. A platinum loop each of test bacteria (10^6 cells/ml), cultured in Mueller Hinton broth, was inoculated on Mueller Hinton agar plates which contained test compounds at various concentrations. After cultivating at 37° C. for 20 hours, the minimum inhibitory concentration (MIC μg/ml) was determined.

[6] = system: Escherichia coli 67; experiment: as above; assay type: cell-based; settings: Mueller Hinton agar, 10^6 cells/ml, 37° C., 20 hours
Protocol: as §2

[7] = system: Pseudomonas aeruginosa IFO3445; experiment: as above; assay type: cell-based; settings: Mueller Hinton agar, 10^6 cells/ml, 37° C., 20 hours
Protocol: as §2

[8] = system: Serratia marcescens IFO3759; experiment: as above; assay type: cell-based; settings: Mueller Hinton agar, 10^6 cells/ml, 37° C., 20 hours
Protocol: as §2

[9] = system: Klebsiella pneumoniae IFO3317; experiment: as above; assay type: cell-based; settings: Mueller Hinton agar, 10^6 cells/ml, 37° C., 20 hours
Protocol: as §2

[10] = LD50, Probit method; settings: in vivo, iv
Protocol: Next, LD50 of representative examples of the compounds of the present invention is shown in Table 3 wherein LD50 was determined in accordance with the Probit method.

[11] = system: Bacteroides fragilis 5524; experiment: Antibacterial activity in vitro, agar plate dilution method (MIC); assay type: cell-based; settings: Mueller Hinton agar, 10^6 cells/ml, 37° C., 20 hours
Protocol: as §2

[12] = Serratia marcescens, 274, in Mus musculus, Table 2-a
[13] = in Mus musculus, Table 2-a, read-out: ED50
[14] = in Mus musculus, Table 2-b, read-out: ED50

CC(C)(O/N=C(\C(=O)N[C@@H]1C(=O)N2C(C(=O)[O-])=C(C[n+]3ccccc3)CS[C@H]12)c1csc(N)n1)C(=O)O [CAZ, Ceftazidime, reference compound]
ED50 [1, 12]: 4.23 mg/kg
ED50 ([1]; Serratia marcescens, 274, in Mus musculus, Table 2-b): 6.41 mg/kg
ED50 ([2]; Table 2-a): > 100 mg/kg
ED50 ([2]; Table 2-b): > 2100 mg/kg
ED50 ([3]; Table 2-a, read-out: ED50): 6.55 mg/kg
ED50 ([3]; Table 2-b): 3.91 mg/kg
ED50 ([4]; Pseudomonas aeruginosa, IFO3445, in Mus musculus, Table 2-a): 229 mg/kg
ED50 ([4]; Pseudomonas aeruginosa, IFO3445, in Mus musculus, Table 2-b): 230 mg/kg

CC(=O)Oc1cc(C)c(C(=O)O/N=C(\C(=O)N[C@@H]2C(=O)N3C(C(=O)O)=C(CSc4cc(C)nc5nc(C(=O)O)nn45)CS[C@H]23)c2csc(N)n2)cc1OC(C)=O [Compound 2, (6R,7R)-7-[2-(2-amino-4-thiazolyl)-2-[Z-(4,5-diacetoxy-2-methylbenzoyl)oxyimino]acetamido]-3-[(2-carboxy-5-methyl-s-triazolo [1,5-a]pyrimidin-7-yl)thiomethyl]-8-oxo-5-thia-1-azabicyclo[4.2.0]oct-2-ene-2-carboxylic acid]
MIC [5]: 0.78 µg/mL (≈ 0.945 µM)
MIC [6]: < 0.05 µg/mL
MIC [7]: 0.2 µg/mL (≈ 0.242 µM)
MIC [8]: < 0.05 µg/mL
MIC [9]: < 0.05 µg/mL
LD50 [10]: > 1000 mg/kg
ED50 [1, 13]: 3.08 mg/kg
ED50 ([2]; Table 2-a, read-out: ED50): 7.9 mg/kg
ED50 ([3]; Table 2-a, read-out: ED50): 2.28 mg/kg
ED50 [4, 13]: 212 mg/kg

Cc1cc(SCC2=C(C(=O)O)N3C(=O)[C@@H](NC(=O)/C(=N\OC(=O)c4cc(O)c(O)cc4C)c4csc(N)n4)[C@H]3SC2)n2nc(C(=O)O)nc2n1 [Compound 3]
MIC [6]: < 0.05 µg/mL
MIC [7]: 0.2 µg/mL (≈ 0.27 µM)
MIC [8]: < 0.05 µg/mL
MIC [9]: < 0.05 µg/mL
ED50 [1, 12]: 1.73 mg/kg
ED50 ([2]; Table 2-a, read-out: ED50): 1.79 mg/kg
ED50 [4, 13]: 407 mg/kg

Cc1cc(SCC2=C(C(=O)O)N3C(=O)[C@@H](NC(=O)/C(=N\O[C@H](C(=O)O)c4ccc(O)c(O)c4)c4csc(N)n4)[C@H]3SC2)n2nc(C(=O)O)nc2n1 [Compound 9, (6R,7R)-7-[2-(2-amino-4-thiazolyl)-2-[Z-[(S)-carboxy(3,4-dihydroxyphenyl)-methyl]oxyimino]acetamido]-3-[(2-carboxy-5-methyl-s-triazolo [1,5-a]pyrimidin-7-yl)thiomethyl]-8-oxo-5-thia-1-azabicyclo[4.2.0]oct-2-ene-2-carboxylic acid]
MIC [5]: 0.78 µg/mL (≈ 1.03 µM)
MIC [6]: 0.1 µg/mL (≈ 0.132 µM)
MIC [11]: 6.25 µg/mL (≈ 8.25 µM)
MIC [7]: 1.56 µg/mL (≈ 2.06 µM)
MIC [8]: 0.05 µg/mL (≈ 0.066 µM)
MIC [9]: < 0.05 µg/mL
LD50 [10]: > 1000 mg/kg
ED50 [1, 14]: 0.47 mg/kg
ED50 ([2]; Table 2-b, read-out: ED50): 3.34 mg/kg
ED50 ([3]; Table 2-b, read-out: ED50): 1.73 mg/kg
ED50 [4, 14]: 95 mg/kg

— patent US5001121A, “Cephalosporin compounds and pharmaceutical compositions thereof” (Mochida Pharmaceutical Co., Ltd., priority 1985, dated 1991)
